Assay results: patent publication US11246922B1, “Vaccine RNA-peptide against SARS-CoV-2 with endogenous exosomes as carrier” (Elidan America, LLC., priority 2021, dated 2022)
Converted amounts (≈) assume the structure as drawn. Ends that are not written are not given here.

Experiments:
in vitro [1] = conditions: human, HEK293 cells
in vitro [2] = conditions: human, WM-266 cells

| Compound | CC50 (BEAS-2B cell line) [µg/mL] | CC50 (HUVEC cell line) [µg/mL] | CC50 (HMEC-1 cell line) [µg/mL] | CC50 (HEK293 cell line) [µg/mL] | CC50 (WM-266 cell line) [µg/mL] | LC100 (BEAS-2B cell line) | LC100 (HUVEC cell line) | LC100 (HMEC-1 cell line) | LC100 (HEK293 cell line) | LC100 (WM-266 cell line) [µg/µL] | CC50 (in vitro [1]) [µg/mL] | CC50 (in vitro [2]) [µg/mL] |
| --- | --- | --- | --- | --- | --- | --- | --- | --- | --- | --- | --- | --- |
| CCCCCCCCCCCCCC(=O)O[C@@H]1[C@@H](C)[C@@]2(O)[C@@H](C=C(CO)C[C@]3(O)C(=O)C(C)=C[C@@H]23)[C@@H]2C(C)(C)[C@]12OC(C)=O [PMA, Phorbol 12-myristate 13-acetate, reference compound] | 297 (≈ 481 µM) | 272 (≈ 441 µM) | 291 (≈ 472 µM) | 275 (≈ 446 µM) | 310 (≈ 503 µM) |  |  |  |  |  |  |  |
| CVNDTFAGSTFISDEVD [Peptide-A] |  |  |  |  |  | 447 | 445 | 452 | 450 | 445 |  |  |
| CVNDTFAGSTFISDEVDGVDEVAKKKSK [Peptide-AB] |  |  |  |  |  | 444 | 456 | 450 | 7 | 444 | 6 | 36 |
| GVDEVAKKKSK [Peptide-B] |  |  |  |  |  |  |  |  |  | 445 |  |  |
| Phosphate-buffered saline [PBS] |  |  |  |  |  | 616 | 612 | 580 | 539 | 587 |  |  |
